This is an account of results in PMC6271944 (Molecules, 2014).

A value given as a limit tells only on which side of the number the result lay.

The target in series [1] is T1, CYP2C9 (Homo sapiens, UniProt P11712).
T1 construct: Pooled human liver microsomes (HLM, LOT 32556) were purchased from BD Gentest Corporation; tissue BD Gentest Corporation LOT 32556; host or cells: pooled human liver microsomes
Nature of the series: CYP inhibition in human liver microsomes, substrate cocktail, LC-MS/MS (diclofenac). The class given is in vitro ADME. Conditions: metabolite 4-hydroxydiclofenac, read-out: IC50 for HLM, CYP2C9. From the text:
(§1) Positive controls (furafyline for CYP1A2, montelukast for CYP2C8, sulfaphenazole for CYP2C9, S-(+)-N-3-benzylnirvanol for CYP2C19, quinidine for CYP2D6, ketoconazole for CYP3A4) and specific substrates (phenacetin for CYP1A2, paclitaxel for CYP2C8, diclofenac for CYP2C9, S-mephenytoin for CYP2C19, dextromethorphan for CYP2D6, midazolam for CYP3A4) are consistent with our previous papers. The substrates were used at concentrations approximately equal to their respective Michaelis-Menten constant (Km) values: 10 μM phenacetin, 5 μM paclitaxel, 5 μM diclofenac, 200 μM S-mephenytoin, 5 μM dextromethorphan, and 2 μM midazolam. NADP^+ was added after a 15 min preincubation of all other components at 37 °C. After a given incubation time (30 min), the reactions were terminated by addition of 60 μL ice-cold acetonitrile containing gemfibrozil and buspirone as internal standards. Incubation samples were stored at −80 °C until used in liquid chromatography-tandem mass spectrometry (LC-MS/MS) analysis. The mixture was centrifuged at 3,500 rpm for 5 min. The supernatant was mixed with equal volume of a 1:1 mixture of methanol and water and 20 μL of the final mixture was used for LC-MS/ MS analysis. […]
(§2) The CYP inhibition potential were evaluated by measuring the formation of one or more metabolites of the test substrates. […]

In series [2] the test system is CYP2C79. In words: CYP inhibition in rat liver microsomes, substrate cocktail, LC-MS/MS (S-mephenytoin). The class given is in vitro ADME. Conditions: pH 7.4, probe S-mephenytoin 200 μM, 95% CI in brackets, read-out: IC50 for RLM, CYP2C79 (table row CYP2C19).
Source text: as §1, §2

Series [3] concerns the target T2, CYP1A2 (Rattus norvegicus, UniProt P04799).
T2 sequence (P04799 1-513): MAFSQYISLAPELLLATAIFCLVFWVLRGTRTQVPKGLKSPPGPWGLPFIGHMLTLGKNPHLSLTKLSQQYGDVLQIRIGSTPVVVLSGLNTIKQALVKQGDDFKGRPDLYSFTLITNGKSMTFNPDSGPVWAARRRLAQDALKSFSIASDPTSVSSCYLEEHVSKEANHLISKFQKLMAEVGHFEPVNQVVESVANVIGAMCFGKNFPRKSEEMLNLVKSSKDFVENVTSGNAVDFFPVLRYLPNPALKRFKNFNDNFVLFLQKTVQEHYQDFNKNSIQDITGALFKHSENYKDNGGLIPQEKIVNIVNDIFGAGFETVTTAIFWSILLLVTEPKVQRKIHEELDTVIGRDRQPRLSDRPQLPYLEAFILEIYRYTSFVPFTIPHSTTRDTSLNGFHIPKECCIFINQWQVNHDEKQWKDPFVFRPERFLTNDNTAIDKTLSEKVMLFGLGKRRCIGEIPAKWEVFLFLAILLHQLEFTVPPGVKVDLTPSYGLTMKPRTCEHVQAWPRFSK
Conditions: 30 mg/kg; cited from earlier work.

Series [4] concerns the target T3, CYP1A2 (Homo sapiens, UniProt P05177).
T3 construct: Pooled human liver microsomes (HLM, LOT 32556) were purchased from BD Gentest Corporation; tissue BD Gentest Corporation LOT 32556; host or cells: pooled human liver microsomes
T3 sequence (P05177 1-516): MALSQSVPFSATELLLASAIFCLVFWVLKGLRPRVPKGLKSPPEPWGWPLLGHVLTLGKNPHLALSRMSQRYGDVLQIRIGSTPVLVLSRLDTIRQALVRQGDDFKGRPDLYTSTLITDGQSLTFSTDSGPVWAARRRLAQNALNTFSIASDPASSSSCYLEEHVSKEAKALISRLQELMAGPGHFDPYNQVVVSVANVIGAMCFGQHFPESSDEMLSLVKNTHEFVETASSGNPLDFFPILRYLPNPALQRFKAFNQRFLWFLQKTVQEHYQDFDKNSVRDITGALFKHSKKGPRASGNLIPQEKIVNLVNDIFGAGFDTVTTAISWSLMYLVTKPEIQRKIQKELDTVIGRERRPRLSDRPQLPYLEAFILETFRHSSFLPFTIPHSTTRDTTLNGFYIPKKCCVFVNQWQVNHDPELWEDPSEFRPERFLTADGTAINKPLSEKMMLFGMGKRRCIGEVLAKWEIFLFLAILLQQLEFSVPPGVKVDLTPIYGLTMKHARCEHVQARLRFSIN
In words: CYP inhibition in human liver microsomes, substrate cocktail, LC-MS/MS (phenacetin). The format is in vitro ADME. The settings on record: metabolite acetaminophen, read-out: IC50 for HLM, CYP1A2.
Source text: as §1, §2

For series [5], the system named is UGT1A1. Details: dose or concentration left out as unconfirmed. The settings on record: cited from earlier work.
For series [6], the system named is WM-266-4 cells. Nature of the series: Cytotoxicity on WM-266-4 cells. Conditions: even at highest concentration. The class given is cell-based, human.

T1 sequence (P11712 whole entry): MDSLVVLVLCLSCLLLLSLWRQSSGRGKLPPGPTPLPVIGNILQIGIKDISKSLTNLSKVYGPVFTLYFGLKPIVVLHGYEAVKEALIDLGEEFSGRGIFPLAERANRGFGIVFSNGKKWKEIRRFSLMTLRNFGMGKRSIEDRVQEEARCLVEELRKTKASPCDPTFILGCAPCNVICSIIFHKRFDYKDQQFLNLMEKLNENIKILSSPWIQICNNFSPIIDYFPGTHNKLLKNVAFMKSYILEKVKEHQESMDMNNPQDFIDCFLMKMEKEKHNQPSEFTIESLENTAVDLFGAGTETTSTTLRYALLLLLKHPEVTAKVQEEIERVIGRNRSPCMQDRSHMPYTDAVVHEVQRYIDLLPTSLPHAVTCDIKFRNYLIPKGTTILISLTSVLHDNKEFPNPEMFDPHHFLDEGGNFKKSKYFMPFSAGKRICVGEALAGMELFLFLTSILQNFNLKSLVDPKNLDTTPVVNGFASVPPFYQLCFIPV

Regarding `O=C(O)[C@H]1O[C@@H](Oc2cc3oc(-c4ccc(O)cc4)cc(=O)c3c(O)c2O)[C@H](O)[C@@H](O)[C@@H]1O` [scutellarin, Scutellarin], the IC50 in series [1] and in series [4] was > 100 µM throughout. Moreover, the half-maximal inhibitory concentration (IC50) at 30 min in series [2] came out at 85.6 µM. Besides, the “inhibition of CYP1A2 activity in whole animal studies” value in series [3] is reported as “weakly inhibited”. Further, in series [5], the “inhibition towards the activity of UGT1A1” value is 48.8%. Also, the “cytotoxicity on WM-266-4 cells” value in series [6] was “does not show cytotoxicity”.
